Source: patent US10662156B2, “Guanidine derivative and medical use thereof” (Toray Industries, Inc., priority 2016, dated 2020)

Experiments:
[1] = system: oxazolone-induced atopic dermatitis mouse models; assay: Suppressive effect on auricular hypertrophy in oxazolone-induced atopic dermatitis mouse model; assay type: in vivo, BALB/c male mice; conditions: 30 mg/kg orally twice a day
Procedure: The guanidine derivative (I) or the pharmacologically acceptable salt thereof was evaluated for its exertion of a therapeutic effect on atopic dermatitis, one type of allergic disease, in an in vivo experimental system using oxazolone-induced atopic dermatitis mouse models in accordance with the method described in the literature (Plos One, Vol. 8, No. 7, e6614). Specifically, the evaluation was conducted by verifying the suppressive effect of the compound on auricular hypertrophy by using, as an index, the thickness of the auricle increased with the progression of symptoms in oxazolone-induced atopic dermatitis models.
Seven-week-old BALB/c male mice (Charles River Laboratories Japan, Inc.) were preliminarily bred and then used at the age of 8 weeks. […]
The thickness of the auricle before oxazolone administration (before induction) at the date of induction and the thickness of the auricle at post-induction day 28 were measured using a digital micrometer (Mitsutoyo Corp.), and the change therebetween (the thickness of the auricle at post-induction day 28—the thickness of the auricle before induction) was used as an index for drug efficacy evaluation. […]

[2] = target: recombinant GST fusion MALT1 (human MALT1) (Homo sapiens (Human), UniProt Q9UDY8); assay: Evaluation of inhibition of protease activity of MALT1 (cleavage of fluorescent peptide substrate Ac-LRSR-AMC); assay type: biochemical; conditions: substrate Ac-LRSR-AMC 20 μmol/L, 30° C. for 80 minutes
Method in brief: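 GST-tagged full-length human MALT1 from E. coli ([…]) was preincubated with compound 30 min at room temperature. Buffer: MES, 150 mM NaCl, 10% sucrose, 0.1% CHAPS, 10 mM DTT, 1 mol/L ammonium citrate. Ac-LRSR-AMC (20 μM final) was then cleaved 80 min at 30 °C; AMC fluorescence (Ex 380/Em 460) gain gave % inhibition versus no-enzyme and DMSO controls.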

Chain of recombinant GST fusion MALT1 (human MALT1) (Q9UDY8 whole entry, the tested form may be a part): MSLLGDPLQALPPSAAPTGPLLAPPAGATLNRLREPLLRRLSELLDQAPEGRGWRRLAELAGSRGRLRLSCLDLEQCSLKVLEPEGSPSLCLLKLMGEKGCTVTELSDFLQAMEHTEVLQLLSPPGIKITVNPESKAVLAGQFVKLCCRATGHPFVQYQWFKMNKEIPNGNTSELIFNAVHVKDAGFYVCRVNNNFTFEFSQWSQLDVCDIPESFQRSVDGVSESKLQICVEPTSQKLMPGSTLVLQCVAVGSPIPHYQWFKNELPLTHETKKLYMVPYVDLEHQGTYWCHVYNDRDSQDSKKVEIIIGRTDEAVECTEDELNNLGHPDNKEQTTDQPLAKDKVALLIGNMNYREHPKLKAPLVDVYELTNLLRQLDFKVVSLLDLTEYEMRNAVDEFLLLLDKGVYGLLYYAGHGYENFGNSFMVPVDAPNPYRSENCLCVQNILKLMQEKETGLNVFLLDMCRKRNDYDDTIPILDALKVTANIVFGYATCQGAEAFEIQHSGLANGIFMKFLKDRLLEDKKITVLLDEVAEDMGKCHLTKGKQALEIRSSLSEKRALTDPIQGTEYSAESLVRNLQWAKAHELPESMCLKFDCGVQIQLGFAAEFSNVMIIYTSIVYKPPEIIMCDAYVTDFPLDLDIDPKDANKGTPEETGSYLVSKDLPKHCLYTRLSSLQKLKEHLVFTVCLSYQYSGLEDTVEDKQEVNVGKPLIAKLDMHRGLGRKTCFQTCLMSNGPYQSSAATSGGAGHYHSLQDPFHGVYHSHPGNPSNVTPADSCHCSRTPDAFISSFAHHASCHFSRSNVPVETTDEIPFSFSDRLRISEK

IC50 [2]: 270 nM
Structure (SMILES): Cl.N/C(=N\S(=O)(=O)c1ccccc1)NCc1cnc(-c2ccc(Cl)cc2)c(-c2ccc(Cl)cc2)c1 [Compound of Example 2, N-(amino(((5,6-bis(4-chlorophenyl)pyridin-3-yl)methyl)amino)methylene)benzenesulfonamide Hydrochloride]
change in the thickness of the auricle (increase) ([1]; post-induction days 21 to 27, post-induction day 28 vs before induction, vehicle group 515 μm): 419 μm | change in the thickness of the auricle compared to the vehicle administration group (in words) ([1]; t test, P<0.05): statistically significantly decreased
